Test results taken from EP1232756A1, “DRUGS, DRINKS OR FOODS” (Takara Shuzo Co, Ltd., priority 1999, dated 2001).

Legend:
[1] = test system: human breast cancer-derived MCF-7 cells; experiment: E-SCREEN assay, proliferation of cultured cells, MTT method (Example 8); assay type: cell-based
Description: A test for proliferation of cultured cells was carried out according to a method called the E-SCREEN assay as described in Ana M. Soto et al. (Environ. Health Perspect. 103:113-122(1995)). Briefly, 4.0 x 10^3 of human breast cancer-derived MCF-7 cells in a volume of 100 µL were seeded into each well of a 96-well plate. The plate was incubated overnight. BisA or a combination of BisA and n-octyl gallate was then added thereto. A well without the addition was used as a control. The cells were further cultured for 4 days in a medium, Dulbecco's modified Eagle medium without Phenol Red supplemented with 5% FCS treated with activated carbon-dextran. The MTT method was used to measured the cell numbers.

female SD rat [2] = experiment: Anti-estrogenic activity of n-octyl gallate against NP, rat uterine weight (Example 10); assay type: in vivo; conditions: for Uterine weight: 1.5 hours before NP, 3 days; for Ratio: vs control (100%)
Description: (§1) A 16-days old female SD rat (Japan SLC) was purchased together with its mother, weaned at 19 days of age, and subjected to experiments from the next day. n-Octyl gallate (Tokyo Kasei Kogyo) was dissolved in a small volume of ethanol. Peanut oil was added thereto to result in a final ethanol concentration of 5%. The resulting mixture was orally administered to the 20-days old female SD rat for three successive days. The uterine removed on the day after the last administration day was weighed. Peanut oil containing 5% ethanol was used for a vehicle administration group. NP weighed such that it would be administered at 50 mg/kg was diluted by adding peanut oil. It was orally administered 1.5 hours after the administration of n-octyl gallate.

female SD rat [3] = experiment: Anti-estrogenic activity of n-octyl gallate or n-cetyl gallate against subcutaneously administered BisA, rat uterine weight (Example 11); assay type: in vivo; conditions: for Uterine weight: 3 days; for Ratio: vs control (100%)
Description: A 17-days old female SD rat (Japan SLC) was purchased together with its mother, weaned at 20 days of age, and subjected to experiments from the next day. n-Octyl gallate or n-cetyl gallate (both from Tokyo Kasei Kogyo) was dissolved in a small volume of ethanol. Peanut oil was added thereto to result in a final ethanol concentration of 5%. The resulting mixture was orally administered to the 21-days old female SD rat for three successive days. The uterine removed on the day after the last administration day was weighed. Peanut oil containing 5% ethanol was used for a vehicle administration group. BisA was dissolved in a small volume of ethanol. Peanut oil was added thereto to result in a final ethanol concentration of 5%. The mixture was subcutaneously administered.

female SD rat [4] = experiment: Anti-estrogenic activity of n-octyl gallate against BisA, rat uterine weight (Example 9); assay type: in vivo; conditions: for Uterine weight: 1.5 hours before BisA, 3 days; for Ratio: vs control (100%)
Description: as §1, with “BisA” for “NP weighed such that it would be administered at 50 mg/kg”, “dissolved in a small volume of ethanol. Peanut oil was added thereto to result in a final ethanol concentration of 5%.” for “diluted by adding peanut oil.”

[5] = target: T1, ER(α) (estrogen receptor α) (Homo sapiens, UniProt P03372); experiment: Binding to estrogen receptor, fluorescence polarization competition (FP Screen-for-Competitors kit, ER-α) (Example 7); conditions: concentration inhibiting 50% of the binding of the ES1-ER(α) complex by competing with ES1; 1 hour at room temperature
T1 construct: purchased PanVera V2577
T1 sequence (P03372 1-595): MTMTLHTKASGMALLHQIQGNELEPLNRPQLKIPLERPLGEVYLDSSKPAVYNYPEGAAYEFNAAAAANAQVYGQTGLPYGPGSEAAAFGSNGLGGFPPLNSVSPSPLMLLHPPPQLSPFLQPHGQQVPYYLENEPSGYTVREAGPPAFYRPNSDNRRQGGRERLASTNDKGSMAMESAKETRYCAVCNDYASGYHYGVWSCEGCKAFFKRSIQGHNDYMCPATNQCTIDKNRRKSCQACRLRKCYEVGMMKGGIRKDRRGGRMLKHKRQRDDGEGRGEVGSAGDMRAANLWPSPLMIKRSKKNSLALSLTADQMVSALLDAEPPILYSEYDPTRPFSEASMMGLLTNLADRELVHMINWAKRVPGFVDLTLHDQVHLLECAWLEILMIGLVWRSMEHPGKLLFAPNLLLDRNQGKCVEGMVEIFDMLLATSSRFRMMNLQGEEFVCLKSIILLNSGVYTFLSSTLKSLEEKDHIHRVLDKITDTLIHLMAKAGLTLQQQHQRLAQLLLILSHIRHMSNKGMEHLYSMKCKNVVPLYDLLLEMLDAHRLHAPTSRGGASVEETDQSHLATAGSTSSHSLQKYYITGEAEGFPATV
Description: Bindings of various gallic acid derivatives to estrogen receptor were tested using FP Screen-for-Competitors kit, ER-α, high sensitivity kit (V2577: PanVera). The tests were carried out basically according to the procedure as described in the manual attached to the kit. One of various gallic acid derivatives (n-octyl gallate (gallic acid n-octyl ester), n-dodecyl gallate (gallic acid n-dodecyl ester) and n-cetyl gallate (gallic acid n-hexadecyl ester)) was dissolved in DMSO and serially diluted to prepare diluted samples (0.5 M - 0.0000000005 M). 49 µL of Screening buffer attached to the kit was added to 1 µL of one of the diluted samples and stirred thoroughly. 50 µL of 10 nM-15 nM:ES1-ER(α) complex (a complex of ES1 (a fluorescent ligand that binds to ER) and ER(α) (estrogen receptor α)) attached to the kit was added thereto, resulting in the total volume of 100 µL. After allowing to stand for 1 hour at room temperature, fluorescence polarization was measured at an excitation wavelength of 360 nm and an emission wavelength of 535 nm using Full-Range BEACON 2000 (PanVera).

[6] = NP 50 mg/kg oral + n-octyl gallate 25 mg/kg oral
[7] = NP 50 mg/kg oral + n-octyl gallate 126 mg/kg oral
[8] = BisA 40 mg/kg subcutaneous + n-octyl gallate 5 mg/kg oral
[9] = BisA 40 mg/kg subcutaneous + n-octyl gallate 25 mg/kg oral
[10] = BisA 40 mg/kg oral + n-octyl gallate 25 mg/kg oral
[11] = BisA 40 mg/kg oral + n-octyl gallate 126 mg/kg oral

CCCCCCCCOC(=O)c1cc(O)c(O)c(O)c1 [n-octyl gallate, gallic acid n-octyl ester]
Relative rate of increase in cell number ([1]; BisA + n-octyl gallate, MCF-7, 4 days culture, control = 100): 91%
suppression of the proliferation of the cells (in words) ([1]; BisA and n-octyl gallate added, MCF-7): suppressed to a degree almost the same as that of the control
Uterine weight (female SD rat [2]; [6]): 40.4 ± 3.6 mg
Uterine weight (female SD rat [2]; [7]): 38.6 ± 2.4 mg
Ratio (female SD rat [2]; [6]): 122%
Ratio (female SD rat [2]; [7]): 117%
Uterine weight (female SD rat [3]; [8]): 48.3 ± 1.5 mg
Uterine weight (female SD rat [3]; [9]): 42.1 ± 1.9 mg
Ratio (female SD rat [3]; [8]): 117%
Ratio (female SD rat [3]; [9]): 102%
Uterine weight (female SD rat [4]; [10]): 32.7 ± 3.5 mg
Uterine weight (female SD rat [4]; [11]): 32.9 ± 3.6 mg
Ratio (female SD rat [4]; [10]): 108%
Ratio (female SD rat [4]; [11]): 108%
IC50 [5]: 3.38 µM
